According to patent publication US10357481B2 (MERCK SHARP & DOHME CORP., priority 2015, dated 2019):

Target: T1, human PDE2A1 (Homo sapiens, UniProt O00408)
T1 construct: GST; purchased BPS Bioscience (San Diego, Calif.) 60020; host or cells: insect cells
Assay: IMAP FP PDE selectivity panel, human PDE2A1
Assay type: biochemical
Settings: Lab B; read-out: Human PDE2 Ki (nM) Lab B
Procedure: Selectivity for PDE2, as compared to other PDE families, was assessed using the IMAP® technology. Human PDE10A2 enzyme was prepared from cytosolic fractions of transiently transfected HEK cells.
Assays for PDE 1 through 11 were performed in parallel at room temperature in 384-well microtiter plates with an incubation volume of 20.2 μL. Solutions of test compounds were prepared in DMSO and serially diluted with DMSO to yield 30 μL of each of ten solutions differing by 3-fold in concentration, at 32 serial dilutions per plate. […] A Labcyte POD 810 (Labcyte, Sunnyvale, Calif.) was used to dispense 200 nL from each well of the titration plate to make eleven copies of the assay plate for each titration, one copy for each PDE enzyme. A solution of each enzyme (dilution from aliquots, sufficient to produce 20% substrate conversion) and a separate solution of FAM-labeled cAMP or FAM-labeled cGMP from Molecular Devices (Sunnyvale, Calif., product # R7506 or cGMP#R7508), at a final concentration of 50 nM were made in the assay buffer (10 mM Tris HCl, pH 7.2, 10 mM MgCl2, 0.05% NaN3 0.01% Tween-20, and 1 mM DTT). Note that the substrate for PDE2 is 50 nM FAM cAMP containing 1000 nM of cGMP. The enzyme and the substrate were then added to the assay plates in two consecutive additions of 10 μL and then shaken to mix. The reaction was allowed to proceed at room temperature for 60 minutes. A binding solution was then made from the kit components, comprised of 80% Solution A, 20% Solution B and binding reagent at a volume of 1/600 the total binding solution. The enzymatic reaction was stopped by addition of 60 μL of the binding solution to each well of the assay plate. The plates were sealed and shaken for 10 seconds. The plates were incubated at room temperature for one hour, then the parallel and perpendicular fluorescence was measured using a Tecan Genios Pro plate reader (Tecan, Switzerland). […] The intrinsic PDE2 inhibitory activity of a compound which may be used in accordance with the present invention may be determined by these assays.

T1 sequence (O00408 1-920 isoform O00408-2): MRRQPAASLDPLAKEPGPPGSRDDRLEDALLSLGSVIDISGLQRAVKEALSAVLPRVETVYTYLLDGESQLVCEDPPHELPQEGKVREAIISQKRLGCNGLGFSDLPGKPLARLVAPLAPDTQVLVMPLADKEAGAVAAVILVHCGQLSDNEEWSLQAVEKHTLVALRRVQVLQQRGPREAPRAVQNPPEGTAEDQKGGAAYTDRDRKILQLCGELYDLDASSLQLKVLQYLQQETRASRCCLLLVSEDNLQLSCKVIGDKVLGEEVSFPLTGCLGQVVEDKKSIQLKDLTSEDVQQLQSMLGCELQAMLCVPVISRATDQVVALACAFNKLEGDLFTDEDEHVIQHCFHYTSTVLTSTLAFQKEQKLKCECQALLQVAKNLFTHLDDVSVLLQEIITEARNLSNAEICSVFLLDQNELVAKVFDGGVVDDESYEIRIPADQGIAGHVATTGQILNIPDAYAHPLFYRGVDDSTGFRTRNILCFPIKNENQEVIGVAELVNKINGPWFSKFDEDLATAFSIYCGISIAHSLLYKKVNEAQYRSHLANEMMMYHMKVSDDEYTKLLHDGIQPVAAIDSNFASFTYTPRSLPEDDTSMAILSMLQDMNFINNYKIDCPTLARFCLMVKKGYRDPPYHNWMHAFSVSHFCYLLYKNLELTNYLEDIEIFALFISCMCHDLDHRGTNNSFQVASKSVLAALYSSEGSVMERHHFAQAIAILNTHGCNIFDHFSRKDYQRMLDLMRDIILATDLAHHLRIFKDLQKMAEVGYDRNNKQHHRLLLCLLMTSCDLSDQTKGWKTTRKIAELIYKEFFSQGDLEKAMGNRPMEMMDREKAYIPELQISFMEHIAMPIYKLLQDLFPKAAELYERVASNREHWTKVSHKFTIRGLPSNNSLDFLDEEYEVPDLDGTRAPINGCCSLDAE

Row | SMILES | Ki
1 | CC(C)(O)C(Nc1cc(C(F)(F)F)nc2ncnn12)c1ccc(C(F)F)cc1 (single isomer, unassigned) [Example 163, (1S or R)-1-[4-(Difluoromethyl)phenyl]-2-methyl-1-{[5-(trifluoromethyl) [1,2,4]triazolo [1,5-a]pyrimidin-7-yl]amino} propan-2-ol] | 77 nM
2 | CC(C)(O)C(Nc1cc(C(F)(F)F)nc2ncnn12)c1ccc(C(F)F)cc1 (single isomer, unassigned) [Example 164, (1R or S)-1-[4-(Difluoromethyl)phenyl]-2-methyl-1-{[5-(trifluoromethyl) [1,2,4]triazolo [1,5-a]pyrimidin-7-yl]amino} propan-2-ol] | > 2960 nM
3 | CC(C)(O)C(Nc1cc(C(F)(F)F)nc2ncnn12)c1ccc(OC(F)F)cc1 (single isomer, unassigned) [Example 165, (1S or R)-1-[4-(Difluoromethoxy)phenyl]-2-methyl-1-{[5-(trifluoromethyl) [1,2,4]triazolo [1,5-a]pyrimidin-7-yl]amino} propan-2-ol] | 52 nM
4 | CC(C)(O)C(Nc1cc(C(F)(F)F)nc2ncnn12)c1ccc(OC(F)F)cc1 (single isomer, unassigned) [Example 166, (1R or S)-1-[4-(Difluoromethoxy)phenyl]-2-methyl-1-{[5-(trifluoromethyl) [1,2,4]triazolo [1,5-a]pyrimidin-7-yl]amino} propan-2-ol] | ~2190 nM
5 | CC(C)(O)C(Nc1cc(C(F)(F)F)nc2ncnn12)c1ccc2c(c1)OC(F)(F)O2 (single isomer, unassigned) [Example 167, (1S or R)-1-(2,2-Difluoro-1,3-benzodioxol-5-yl)-2-methyl-1-{[5-(trifluoromethyl) [1,2,4]triazolo [1,5-a]pyrimidin-7-yl]amino} propan-2-ol] | 184 nM
6 | CC(C)(O)C(Nc1cc(C(F)(F)F)nc2ncnn12)c1ccc2c(c1)OC(F)(F)O2 (single isomer, unassigned) [Example 168, (1R or S)-1-(2,2-Difluoro-1,3-benzodioxol-5-yl)-2-methyl-1-{[5-(trifluoromethyl) [1,2,4]triazolo [1,5-a]pyrimidin-7-yl]amino} propan-2-ol] | > 2960 nM
7 | CC(C)(O)C(Nc1cc(C(F)(F)F)nc2ncnn12)c1ccc(CC(F)(F)F)cc1 (single isomer, unassigned) [Example 169, (1S or R)-2-Methyl-1-[4-(2,2,2-trifluoroethyl)phenyl]-1-{[5-(trifluoromethyl) [1,2,4]triazolo [1,5-a]pyrimidin-7-yl]amino} propan-2-ol] | 50 nM
8 | CC(C)(O)C(Nc1cc(C(F)(F)F)nc2ncnn12)c1ccc(CC(F)(F)F)cc1 (single isomer, unassigned) [Example 170, (1R or S)-2-Methyl-1-[4-(2,2,2-trifluoroethyl)phenyl]-1-{[5-(trifluoromethyl) [1,2,4]triazolo [1,5-a]pyrimidin-7-yl]amino} propan-2-ol] | > 2960 nM
9 | CC(C)(O)C(Nc1cc(C(F)(F)F)nc2ncnn12)c1ccc(OC(F)(F)F)cc1F (single isomer, unassigned) [Example 171, (1S or R)-1-[2-Fluoro-4-(trifluoromethoxy)phenyl]-2-methyl-1-{[5-(trifluoromethyl) [1,2,4]triazolo [1,5-a]pyrimidin-7-yl]amino} propan-2-ol] | ~1560 nM
10 | CC(C)(O)C(Nc1cc(C(F)(F)F)nc2ncnn12)c1ccc(OC(F)(F)F)cc1F (single isomer, unassigned) [Example 172, (1R or S)-1-[2-Fluoro-4-(trifluoromethoxy)phenyl]-2-methyl-1-{[5-(trifluoromethyl) [1,2,4]triazolo [1,5-a]pyrimidin-7-yl]amino} propan-2-ol] | 25 nM
11 | CC(C)(O)C(Nc1cc(C(F)(F)F)nc2ncnn12)c1ccc(C(F)(F)F)cc1F (single isomer, unassigned) [Example 173, (1S or R)-1-[2-Fluoro-4-(trifluoromethyl)phenyl]-2-methyl-1-{[5-(trifluoromethyl) [1,2,4]triazolo [1,5-a]pyrimidin-7-yl]amino} propan-2-ol] | > 2960 nM
12 | CC(C)(O)C(Nc1cc(C(F)(F)F)nc2ncnn12)c1ccc(C(F)(F)F)cc1F (single isomer, unassigned) [Example 174, (1R or S)-1-[2-Fluoro-4-(trifluoromethyl)phenyl]-2-methyl-1-{[5-(trifluoromethyl) [1,2,4]triazolo [1,5-a]pyrimidin-7-yl]amino} propan-2-ol] | 29 nM
13 | CC(C)(O)C(Nc1cc(C(F)(F)F)nc2ncnn12)c1ccc(OC(F)(F)F)c(F)c1 (single isomer, unassigned) [Example 175, (1S or R)-1-[3-Fluoro-4-(trifluoromethoxy)phenyl]-2-methyl-1-{[5-(trifluoromethyl) [1,2,4]triazolo [1,5-a]pyrimidin-7-yl]amino} propan-2-ol] | 14 nM
14 | CC(C)(O)C(Nc1cc(C(F)(F)F)nc2ncnn12)c1ccc(OC(F)(F)F)c(F)c1 (single isomer, unassigned) [Example 176, (1R or S)-1-[3-Fluoro-4-(trifluoromethoxy)phenyl]-2-methyl-1-{[5-(trifluoromethyl) [1,2,4]triazolo [1,5-a]pyrimidin-7-yl]amino} propan-2-ol] | ~1310 nM
15 | CC(C)(O)[C@@H](Nc1cc(C(F)(F)F)nc2ncnn12)c1ccc(S(F)(F)(F)(F)F)cc1 (single isomer, unassigned) [Example 177] | 8.4 nM
16 | CC(C)(O)[C@H](Nc1cc(C(F)(F)F)nc2ncnn12)c1ccc(S(F)(F)(F)(F)F)cc1 (single isomer, unassigned) [Example 178] | 421 nM
17 | CC1(c2ccc(C(Nc3cc(C(F)(F)F)nc4ncnn34)C(C)(C)O)cc2)CC1 (single isomer, unassigned) [Example 179, (1S or R)-2-Methyl-1-[4-(1-methylcyclopropyl)phenyl]-1-{[5-(trifluoromethyl) [1,2,4]triazolo [1,5-a]pyrimidin-7-yl]amino} propan-2-ol] | > 2960 nM
18 | CC1(c2ccc(C(Nc3cc(C(F)(F)F)nc4ncnn34)C(C)(C)O)cc2)CC1 (single isomer, unassigned) [Example 180, (1R or S)-2-Methyl-1-[4-(1-methylcyclopropyl)phenyl]-1-{[5-(trifluoromethyl) [1,2,4]triazolo [1,5-a]pyrimidin-7-yl]amino} propan-2-ol] | 12 nM
19 | CC(C)(O)C(Nc1cc(C(F)F)nc2ncnn12)c1ccc(OC(F)F)cc1F (single isomer, unassigned) [Example 181] | 32 nM
20 | CC(C)(O)C(Nc1cc(C(F)F)nc2ncnn12)c1ccc(OC(F)F)cc1F (single isomer, unassigned) [Example 182] | > 2960 nM
21 | CC(C)(O)C(Nc1cc(C(F)F)nc2ncnn12)c1ccc(OC(F)F)cc1Cl (single isomer, unassigned) [Example 183, (1S or R)-[2-Chloro-4-(difluoromethoxy)phenyl]-1-{[5-(difluoromethyl) [1,2,4]triazolo [1,5-a]pyrimidin-7-yl]amino}-2-methylpropan-2-ol] | 15 nM
22 | CC(C)(O)C(Nc1cc(C(F)F)nc2ncnn12)c1ccc(OC(F)F)cc1Cl (single isomer, unassigned) [Example 184, (1R or S)-[2-Chloro-4-(difluoromethoxy)phenyl]-1-{[5-(difluoromethyl) [1,2,4]triazolo [1,5-a]pyrimidin-7-yl]amino}-2-methylpropan-2-ol] | 68 nM
23 | CC(C)(O)C(Nc1cc(C(F)F)nc2ncnn12)c1ccc(OC(F)(F)F)cc1F (single isomer, unassigned) [Example 185, (1S or R)-{[5-(Difluoromethyl) [1,2,4]triazolo [1,5-a]pyrimidin-7-yl]amino}-1-[2-fluoro-4-(trifluoromethoxy)phenyl]-2-methylpropan-2-ol] | 10 nM
24 | CC(C)(O)C(Nc1cc(C(F)F)nc2ncnn12)c1ccc(OC(F)(F)F)cc1F (single isomer, unassigned) [Example 186, (1R or S)-{[5-(Difluoromethyl) [1,2,4]triazolo [1,5-a]pyrimidin-7-yl]amino}-1-[2-fluoro-4-(trifluoromethoxy)phenyl]-2-methylpropan-2-ol] | 1900 nM
25 | CC(C)(O)C(Nc1cc(C(F)F)nc2ncnn12)c1ccc(OC(F)(F)F)c(F)c1 (single isomer, unassigned) [Example 187, (1S or R)-{[5-(Difluoromethyl) [1,2,4]triazolo [1,5-a]pyrimidin-7-yl]amino}-1-[3-fluoro-4-(trifluoromethoxy)phenyl]-2-methylpropan-2-ol] | 5.5 nM
